Results: patent US4209442A, “Angiotensin II analogs and process for the preparation thereof” (Richter Gedeon Vegyeszeti Gyar Rt., priority 1977, dated 1980)

System: hypertension induced by angiotensin II
Assay: Decrease in blood pressure after intravenous administration, under i.v. infusion of angiotensin II
Assay type: in vivo, tomcats
Conditions: single dose, angiotensin II infusion 0.5 μg/kg/min, average of 6 experiments
Protocol: The antagonistic activity of the compounds having the formula I was tested on tomcats. The blood pressure was measured on the cervical artery. The tests were performed by introducing a Hypertension (CIBA) infusion into a lateral femoral vane at a speed of 0.5 μg/kg/min. When the increase in blood pressure was stabilized, the aqueous, physiological or carrier-containing solutions of the test compounds and Saralasin were administered in a single dose, intravenously or subcutaneously, and the decrease in blood pressure was measured. In the Table 1 the decrease in the arterial blood pressure under the influence of an intravenous administration of the test compounds is illustrated. For comparision Saralasin is used. The data set forth in the Table 1 were obtained by calculating the average of the results of 6 experiments. The margins of error indicate the scatter of the main value.

| Molecule | Decrease in blood pressure (mmHg) after administration of 10 μg/kg i.v. doses [mmHg] | Decrease in blood pressure (mmHg) after administration of 20 /μg/kg i.v. doses (20 μg/kg i.v.) [mmHg] |
| --- | --- | --- |
| (Hydroxyacetyl^1,Thr(Me)^8)-angiotensin II [(Hydroxyacetyl^1,Thr(Me)^8)-AngII] | -33 ± 5.3 | -38 ± 4.1 |
| CNCC(=O)N[C@@H](CCCN=C(N)N)C(=O)N[C@H](C(=O)N[C@@H](Cc1ccc(O)cc1)C(=O)N[C@H](C(=O)N[C@@H](Cc1cnc[nH]1)C(=O)N1CCC[C@H]1C(=O)N[C@@H](C)C(=O)O)C(C)C)C(C)C [Saralasin, reference compound] | -41 ± 2.5 | – |
